ChEMBL document CHEMBL1155594, “Absolute configuration and antiprotozoal activity of minquartynoic acid” (J Nat Prod, 2000)
In brackets after ≈: the same amount, converted by molar mass.

Legend:
[1] = Inhibition of phytohemagglutininin A-induced proliferation in human lymphocytes assessed as radiolabeled thymidine uptake; type: cell-based; conditions: Lymphocyte
[2] = tested on: Plasmodium falciparum; experiment: Antiplasmodial activity against chloroquine-sensitive Plasmodium falciparum 3D7; type: functional, organism-based
[3] = tested on: Leishmania major; experiment: Antileishmanial activity against Leishmania major promastigotes after 20 hrs; type: functional, organism-based

- IC50 [2]: 3 µg/mL (≈ 10.6 µM)
- IC50 [3]: 1.4 µg/mL (≈ 4.92 µM)
Structure (SMILES): C[C@H](O)C#CC#CC#CC#CCCCCCCCC(=O)O [MINQUARTYNOIC ACID]
- IC50 [1]: 5.3 µg/mL (≈ 18.6 µM)
